Experimental data published in patent US11826373B2, “Methods for treatment of diseases” (Galera Labs, LLC, priority 2011, dated 2023).

Experiments:
[1] = test system: radiation-induced oral mucositis; test: Hamster model of radiation-induced oral mucositis; assay type: in vivo, Male Syrian golden hamsters; conditions: all doses (3-30 mg/kg) administered prior to irradiation
Procedure: GC4403 and GC4419 were studied in a hamster model of oral mucositis (OM). Irradiation of the hamster cheek pouch induces lesions that are histologically similar to OM that which occurs clinically, and develop and resolve at a similar rate to radiation-induced OM in humans. […] The animals received 40 Gy radiation localized to the everted cheek pouch and were evaluated every second day for the development of inflammation at the radiation site. Inflammation was rated on a scale of 0 (normal) to 5 (total ulceration of pouch) by a trained observer, blinded to the treatment protocol.

Rats = test: Rat GC4419 14-day IV study; assay type: in vivo; conditions: 20 mg/kg, Days 1 or 2
Procedure: (§1) GC4419 was evaluated in a 14-day GLP study in rats. GC4419 was administered to rats (10/sex/group) as 15 minute IV injections at dosages of 0, 5, 10 or 20 (15) mg/kg/day for 14 days. The control group received vehicle (sodium citrate in normal saline). Due to mortality at 20 mg/kg/day, the high dose group was decreased to 15 mg/kg/day on Day 3. Evaluations for compound-related effects were based on clinical observations, body weight, food consumption, hematology and clinical chemistry parameters, functional observation battery, organ weights and gross and microscopic postmortem examinations. […] There were no compound-related changes in organ weights or macroscopic or microscopic pathology. Based on the results of this study the NOAEL for GC4419 when administered to rats for 14 days as a 15 minute IV infusion was 15 mg/kg/day.

[2] = Rat GC4419 14-day IV study; assay type: in vivo; conditions: both sexes, rat, in vivo; rats, 15 minute IV infusion, 14 days
Procedure: as §1

[3] = Activity toward hydrogen peroxide; assay type: biochemical
healthy subjects = test: Human Phase 1 single rising dose safety and tolerability of GC4419; assay type: in vivo
Procedure: A human clinical trial entitled, “A Double-Blind, Placebo-Controlled, Single Rising Dose Study to Evaluate the Safety and Tolerability and Determine the Pharmacokinetics of M40419 Administered as a I5-Minute Intravenous Infusion in Healthy Subjects,” was conducted on 54 subjects. This was a single center, randomized, placebo-controlled, sequential panel, single dose safety, tolerability, and pharmacokinetic study of GC4419 administered as a 75-mL IV infusion over 15 minutes in escalating doses of 10 mg, 15 mg, 22 mg, 33 mg, 50 mg, 75 mg, and 112 mg. The study consisted of two phases: the first phase was a dose escalation with six subjects (four active and two placebo) in each cohort to determine a Maximum Tolerated Dose (MTD); the second phase was a repeat of the MTD dose in 12 subjects (eight active drug and four placebo) to confirm the MTD or safety of highest dose tested. The study population was comprised of 54 healthy male and female subjects (36 males, 18 females) between the ages of 18 and 50 years considered eligible on the basis of inclusion and exclusion criteria. There were four active and two placebo subjects for each dose level in the escalating dose phase of the study, and eight active and four placebo subjects for the confirmation of MTD phase.
All subjects receiving a dose of study medication were evaluated for safety. The safety of the drug product was assessed based on: treatment-emergent adverse events (TEAEs), clinical laboratory evaluations, vital signs, 12-lead electrocardiograms (ECGs) and standard ECG parameters including PR, QRS, QT, and QTc intervals.

beagle dogs [4] = test: GC4403 7-day IV toxicity in dog; assay type: in vivo; conditions: 7 days
Procedure: GC4403 in 26 mM sodium bicarbonate/0.9% sodium chloride was administered to beagle dogs (4/sex/group) IV (slow bolus injection over at least 1 minute) at dosages of 0, 1, 3 or 6 mg/kg/day for 7 days. There was no mortality during the study. […] At 6 mg/kg/day, animals also had tremors, abnormal stance and gait, inability to stand and prostration. Generally, clinical signs had resolved by two hours after dose administration. As the study progressed, some clinical signs (tremors, inability to stand, prostration and abnormal stance and gait) lessened slightly. […] The lower white cell counts correlated with lower absolute neutrophil and eosinophil counts at ≥3 mg/kg/day, which were, however, within the normal historical values for these parameters. At necropsy, there were no changes in organ weights compared to control animals nor were there macroscopic or microscopic changes in any organs with the exception of fibrosis in the heart of one male at 3 mg/kg/day and 1 male at 6 mg/kg/day.

SD rats = test: Rat GC4403 7-day intravenous toxicity; assay type: in vivo
Procedure: GC4403 was Studied in a GLP toxicology study in which it was administered in 26 mM sodium bicarbonate/0.9% sodium chloride to SD rats (10/sex/group) IV (slow bolus 1 mL/kg/minute) at dosages of 0, 1, 3 or 10 mg/kg/day for 7 days (On Day 1, 1/10 male rats receiving 10 mg/kg/day died). The dosage was therefore decreased to 8 mg/kg/day on Day 2 for all surviving animals for the remainder of the study, and the original 10 mg/kg/day group was re-designated as the 8 mg/kg/day group. On Day 4, two females from the 8 mg/kg/day group also died. Clinical signs immediately following dose administration of 8 mg/kg/day were twitching, labored breathing, body drop and prostration. At the scheduled 1-hour observation time, animals appeared normal. Males and females given 8 mg/kg/day had decreased body weight gains, which were accompanied by decreased food consumption in the males only. […] Surviving rats were sacrificed, and all rats sacrificed or found dead were necropsied.

[5] = GC4403 28-day IV toxicity in dog; assay type: in vivo; conditions: both sexes, dog, in vivo; beagle dogs, IV, 28 consecutive days; read-out: no observed adverse effect level (NOAEL)
Procedure: (§2) GC4403 was evaluated in a Good Laboratory Practice (GLP)-regulated study in beagle dogs. GC4403 was administered intravenously (IV) via slow bolus dose, once daily, to beagle dogs for 28 consecutive days. GC4403 was administered IV into the cephalic vein (0.5 mL/kg) to 3 groups of dogs (4 animals/sex/group) at dosages of 1.0, 3.0 and 6.0 mg/kg with a fourth group receiving vehicle (26 mM sodium bicarbonate in normal saline). […] There were no test article-related differences in group mean hematology, coagulation, or clinical chemistry parameters or urinalysis parameters after 28 days of treatment in any dosing group. At necropsy on day 29, there were neither test-article related gross macroscopic findings nor test-article-related differences in organ weight. No test-article-related histopathological lesions were present. There were no test-article-related electrocardiology (ECG) effects when evaluated on day 27.

beagle dogs [6] = test: GC4403 28-day IV toxicity in dog; assay type: in vivo; conditions: 28 days
Procedure: as §2

[7] = single intravenous infusion over 15 minutes, healthy subjects

Structure (SMILES)	development of grade 3 or greater OM [1]	mortality (Rats)	NOAEL at 14 days [2]	activity toward hydrogen peroxide [3]	subjects who experienced at least one TEAE (healthy subjects; 30 of 36 subjects who received trial material, 10-112 mg)	tolerability of single doses up to 112 mg (healthy subjects; healthy subjects)	tolerability of single intravenous doses from 10 mg to 50 mg (healthy subjects; healthy subjects)	MTD initially defined in the dose escalation phase (healthy subjects; [7])	maximum tolerated dose (MTD), final (healthy subjects; [7])	mortality (beagle dogs [4]; dog, 1, 3 or 6 mg/kg/day IV)	no observed toxic event level (NOTEL) (beagle dogs [4]; dog, IV slow bolus injection)	dosage at which clinical signs immediately after dose administration were observed (beagle dogs [4]; dog, IV slow bolus, scratching, facial swelling, raised red areas, partial closing of the eyes)	mortality, females died (SD rats; 8 mg/kg/day group, Day 4)	mortality, male rats died (SD rats; 10 mg/kg/day, Day 1)	no observed toxic event level (NOTEL) (SD rats; rat, IV slow bolus injection, 7 days)	NOAEL at 28 days [5]	mortality (beagle dogs [6]; beagle dogs, 1.0, 3.0 and 6.0 mg/kg IV)	no observed toxic effect level (NOTEL) (beagle dogs [6]; both, beagle, dog, in vivo, iv)
[Cl][Mn-5]1234([Cl])[n+]5c6cccc5C[NH+]1[C@H]1CCCC[C@@H]1[NH+]2CC[NH+]3[C@H]1CCCC[C@@H]1[NH+]4C6 (stereo partly drawn) [GC4419]	prevented the development of grade 3 or greater OM	Several rats died	15 mg/kg/day	no detectable activity	83.3%	no serious adverse events	safe and well tolerated with no adverse events	75 mg	50 mg									
[Cl][Mn-5]1234([Cl])[n+]5c6cccc5C[NH+]1[C@@H]1CCCC[C@H]1[NH+]2CC[NH+]3[C@@H]1CCCC[C@H]1[NH+]4C6 (stereo partly drawn) [GC4403]										no mortality	3 mg/kg/day	≥ 3 mg/kg/day	two	1/10	3 mg/kg/day	1 mg/kg/day	No animals died	3.0 mg/kg/day
